Results: US11331284B2 (UNM Rainforest Innovations, priority 2017, dated 2022)

Assays:
[1] = tested on: bone marrow derived macrophages from wild type (autophagy, LC3 puncta); experiment: ambroxol dose response assay, LC3 puncta quantified by Cellomics, wild type cells; assay type: cell-based
[2] = tested on: bone marrow derived macrophages from ATG5 knockouts (autophagy, LC3 puncta); experiment: ambroxol dose response assay, LC3 puncta quantified by Cellomics, ATG5 knockout cells; assay type: cell-based
Source text: The inventors next studied the same assay, described above, but in ATG5 knockout cells.

[3] = tested on: TFEB nuclear translocation; experiment: ambroxol induction of TFEB nuclear translocation; assay type: cell-based
[4] = in humans; reference 1; cited from earlier work

EC50 ([3]; read-out: concentration giving 50% of maximal autophagy induced by ambroxol (sigmoidal fit), both data sets, FIGS. 5 and 6): ~50 µM
SMILES: Nc1c(Br)cc(Br)cc1CN[C@H]1CC[C@H](O)CC1 [ambroxol, trans-4-[(2-amino-3,5-dibromobenzyl)amino]cyclohexanol]
concentration as low as which had a positive effect on autophagy ([1]; LC3 puncta, pp242 induction = 100%, t test v. control p=0.025, FIG. 3): 6.25 µM
dose response of autophagy induction ([1]; ambroxol 0 to 200 uM, FIG. 3): higher ambroxol concentrations result in higher induction of autophagy
dose response of autophagy induction ([2]; FIG. 4): clear dose response
concentration as low as which gave appreciable increases in autophagy ([2]; LC3 puncta, t test v. control p=0.0008, FIG. 4): 6.25 µM
concentration at which significant increases were observed ([3]; FIGS. 5 and 6): 25 µM
plasma half-life [4]: 3.72 h
